Read-outs that look alike come from different tables or passages of the source.
Key:
Assay in all cases: biochemical
Format in all cases: biochemical
panel of 391 kinases [1] = molecular target: panel of 391 kinases (Homo sapiens, UniProt Q04759); conditions: PKCtheta, MK-28 1 µM, ATP 1 µM
panel of 391 kinases [2] = molecular target: panel of 391 kinases (Homo sapiens, UniProt Q9Y2U5); conditions: MEKK2, MK-28 1 µM, ATP 1 µM
panel of 391 kinases [3] = molecular target: panel of 391 kinases (Homo sapiens, UniProt Q07002); conditions: CDK18/cyclin Y (PCTK3), MK-28 1 µM, ATP 1 µM
panel of 391 kinases [4] = molecular target: panel of 391 kinases (Homo sapiens, UniProt P08069); conditions: IGF1R, MK-28 1 µM, ATP 1 µM
panel of 391 kinases [5] = molecular target: panel of 391 kinases (Homo sapiens, UniProt P16591); conditions: FER, MK-28 1 µM, ATP 1 µM
panel of 391 kinases [6] = molecular target: panel of 391 kinases (Homo sapiens, UniProt O75460); conditions: ERN1/IRE1, MK-28 1 µM, ATP 1 µM
panel of 391 kinases [7] = molecular target: panel of 391 kinases (Homo sapiens, UniProt P24941); conditions: MK-28 1 µM, ATP 1 µM; for remaining activity at 1 µM: read-out: % Enzyme Activity (relative to DMSO controls)
panel of 391 kinases [8] = molecular target: panel of 391 kinases (Homo sapiens, UniProt Q99759); conditions: MEKK3, MK-28 1 µM, ATP 1 µM
panel of 391 kinases [9] = molecular target: panel of 391 kinases (Homo sapiens, UniProt P53779); conditions: JNK3, MK-28 1 µM, ATP 1 µM
panel of 391 kinases [10] = molecular target: panel of 391 kinases (Homo sapiens, UniProt P49840); conditions: GSK3a, MK-28 1 µM, ATP 1 µM
panel of 391 kinases [11] = molecular target: panel of 391 kinases (Homo sapiens, UniProt Q86SG6); conditions: NEK8, MK-28 1 µM, ATP 1 µM
panel of 391 kinases [12] = molecular target: panel of 391 kinases (Homo sapiens, UniProt Q6IQ55); conditions: TTBK2, MK-28 1 µM, ATP 1 µM
panel of 391 kinases [13] = molecular target: panel of 391 kinases (Homo sapiens, UniProt P80192); conditions: MLK1/MAP3K9, MK-28 1 µM, ATP 1 µM
panel of 391 kinases [14] = molecular target: panel of 391 kinases (Homo sapiens, UniProt P42679); conditions: CTK/MATK, MK-28 1 µM, ATP 1 µM
panel of 391 kinases [15] = molecular target: panel of 391 kinases (Homo sapiens, UniProt P14616); conditions: IRR/INSRR, MK-28 1 µM, ATP 1 µM
panel of 391 kinases [16] = molecular target: panel of 391 kinases (Homo sapiens, UniProt P06213); conditions: IR, MK-28 1 µM, ATP 1 µM
panel of 391 kinases [17] = molecular target: panel of 391 kinases (Homo sapiens, UniProt P20794); conditions: MAK, MK-28 1 µM, ATP 1 µM
panel of 391 kinases [18] = molecular target: panel of 391 kinases (Homo sapiens, UniProt P43403); conditions: ZAP70, MK-28 1 µM, ATP 1 µM
panel of 391 kinases [19] = molecular target: panel of 391 kinases (Homo sapiens, UniProt P12931); conditions: c-Src, MK-28 1 µM, ATP 1 µM
panel of 391 kinases [20] = molecular target: panel of 391 kinases (Homo sapiens, UniProt Q76MJ5); conditions: ERN2/IRE2, MK-28 1 µM, ATP 1 µM
panel of 391 kinases [21] = molecular target: panel of 391 kinases (Homo sapiens, UniProt Q15569); conditions: TESK1, MK-28 1 µM, ATP 1 µM
panel of 391 kinases [22] = molecular target: panel of 391 kinases (Homo sapiens, UniProt P48730); conditions: CK1d, MK-28 1 µM, ATP 1 µM
panel of 391 kinases [23] = molecular target: panel of 391 kinases (Homo sapiens, UniProt Q86UE8); conditions: TLK2, MK-28 1 µM, ATP 1 µM
panel of 391 kinases [24] = molecular target: panel of 391 kinases (Homo sapiens, UniProt Q15759); conditions: P38b/MAPK11, MK-28 1 µM, ATP 1 µM
panel of 391 kinases [25] = molecular target: panel of 391 kinases (Homo sapiens, UniProt Q86V86); conditions: PIM3, MK-28 1 µM, ATP 1 µM
[26] = read-out: % Enzyme Activity (relative to DMSO controls)

With `CN(/N=C\c1ccc(O)c(O)c1)c1nc(-c2ccccc2)cc(-c2ccccc2)n1` [MK-28] the “% Enzyme Activity (relative to DMSO controls)” value (panel of 391 kinases [1]) was 123.95%, the remaining activity at 1 µM (panel of 391 kinases [1]; [26]) was 128% and the “% Enzyme Activity (relative to DMSO controls)” value (panel of 391 kinases [2]) was 91.93%. For the same molecule, the remaining activity at 1 µM (panel of 391 kinases [2]; [26]) was 94%, the “% Enzyme Activity (relative to DMSO controls)” value (panel of 391 kinases [3]) was 109.27% and the remaining activity at 1 µM (panel of 391 kinases [3]; [26]) was 111%. The “% Enzyme Activity (relative to DMSO controls)” value (panel of 391 kinases [4]) was 98.39%, the remaining activity at 1 µM (panel of 391 kinases [4]; [26]) was 100% and the “% Enzyme Activity (relative to DMSO controls)” value (panel of 391 kinases [5]) was 101.21%. The remaining activity at 1 µM (panel of 391 kinases [5]; [26]) was 102%, the “% Enzyme Activity (relative to DMSO controls)” value (panel of 391 kinases [6]) was 104.22% and the remaining activity at 1 µM (panel of 391 kinases [6]; [26]) was 105%. For the same molecule, the “% Enzyme Activity (relative to DMSO controls)” value (panel of 391 kinases [7]; CDK2/Cyclin A1) was 112.90%, the remaining activity at 1 µM (panel of 391 kinases [7]; CDK2/Cyclin A1) was 118% and the “% Enzyme Activity (relative to DMSO controls)” value (panel of 391 kinases [7]; CDK2/cyclin A) was 102.50%. The remaining activity at 1 µM (panel of 391 kinases [7]; CDK2/cyclin A) was 104%, the “% Enzyme Activity (relative to DMSO controls)” value (panel of 391 kinases [7]; CDK2/cyclin E2) was 99.65% and the remaining activity at 1 µM (panel of 391 kinases [7]; CDK2/cyclin E2) was 100%. For the same molecule, the “% Enzyme Activity (relative to DMSO controls)” value (panel of 391 kinases [7]; CDK2/cyclin E) was 95.41%, the remaining activity at 1 µM (panel of 391 kinases [7]; CDK2/cyclin E) was 97% and the “% Enzyme Activity (relative to DMSO controls)” value (panel of 391 kinases [7]; CDK2/cyclin O) was 124.92%. For the same molecule, the remaining activity at 1 µM (panel of 391 kinases [7]; CDK2/cyclin O) was 126%, the “% Enzyme Activity (relative to DMSO controls)” value (panel of 391 kinases [8]) was 87.80% and the remaining activity at 1 µM (panel of 391 kinases [8]; [26]) was 93.8%. The “% Enzyme Activity (relative to DMSO controls)” value (panel of 391 kinases [9]) was 94.93%, the remaining activity at 1 µM (panel of 391 kinases [9]; [26]) was 99.6% and the “% Enzyme Activity (relative to DMSO controls)” value (panel of 391 kinases [10]) was 82.88%. For the same molecule, the remaining activity at 1 µM (panel of 391 kinases [10]; [26]) was 83%, the “% Enzyme Activity (relative to DMSO controls)” value (panel of 391 kinases [11]) was 101.46% and the remaining activity at 1 µM (panel of 391 kinases [11]; [26]) was 101%. For the same molecule, the “% Enzyme Activity (relative to DMSO controls)” value (panel of 391 kinases [12]) was 97.38%, the remaining activity at 1 µM (panel of 391 kinases [12]; [26]) was 98.9% and the “% Enzyme Activity (relative to DMSO controls)” value (panel of 391 kinases [13]) was 91.08%. For the same molecule, the remaining activity at 1 µM (panel of 391 kinases [13]; [26]) was 91.3%, the “% Enzyme Activity (relative to DMSO controls)” value (panel of 391 kinases [14]) was 98.98% and the remaining activity at 1 µM (panel of 391 kinases [14]; [26]) was 101%. The “% Enzyme Activity (relative to DMSO controls)” value (panel of 391 kinases [15]) was 82.69%, the remaining activity at 1 µM (panel of 391 kinases [15]; [26]) was 85.9% and the “% Enzyme Activity (relative to DMSO controls)” value (panel of 391 kinases [16]) was 92.32%. The remaining activity at 1 µM (panel of 391 kinases [16]; [26]) was 94.4%, the “% Enzyme Activity (relative to DMSO controls)” value (panel of 391 kinases [17]) was 94.70% and the remaining activity at 1 µM (panel of 391 kinases [17]; [26]) was 97.8%. For the same molecule, the “% Enzyme Activity (relative to DMSO controls)” value (panel of 391 kinases [18]) was 95.37%, the remaining activity at 1 µM (panel of 391 kinases [18]; [26]) was 97.8% and the “% Enzyme Activity (relative to DMSO controls)” value (panel of 391 kinases [19]) was 96.32%. For the same molecule, the remaining activity at 1 µM (panel of 391 kinases [19]; [26]) was 97.7%, the “% Enzyme Activity (relative to DMSO controls)” value (panel of 391 kinases [20]) was 97.92% and the remaining activity at 1 µM (panel of 391 kinases [20]; [26]) was 99.7%. For the same molecule, the “% Enzyme Activity (relative to DMSO controls)” value (panel of 391 kinases [21]) was 66.57%, the remaining activity at 1 µM (panel of 391 kinases [21]; [26]) was 66.7% and the “% Enzyme Activity (relative to DMSO controls)” value (panel of 391 kinases [22]) was 95.42%. For the same molecule, the remaining activity at 1 µM (panel of 391 kinases [22]; [26]) was 99.5%, the “% Enzyme Activity (relative to DMSO controls)” value (panel of 391 kinases [23]) was 101.04% and the remaining activity at 1 µM (panel of 391 kinases [23]; [26]) was 102%. For the same molecule, the “% Enzyme Activity (relative to DMSO controls)” value (panel of 391 kinases [24]) was 107.60%, the remaining activity at 1 µM (panel of 391 kinases [24]; [26]) was 109% and the “% Enzyme Activity (relative to DMSO controls)” value (panel of 391 kinases [25]) was 87.24%. For the same molecule, the remaining activity at 1 µM (panel of 391 kinases [25]; [26]) was 89.2%.
